Where two headings read alike, the source gives them in different places.
Tested on: U2OS_Bim cells
Assay: Apoptosis inhibition assay (Bim-induced apoptosis, cell viability by ATP level)
Format: cell-based
Conditions: U2OS_Bim cells, numbering of Tables 4a/4b
Method in brief: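 Apoptosis was triggered by doxycycline (0.1 μg/mL) induction of Bim, one hour after compound addition to U2OS_Bim cells. Survival was measured after 24 h from cellular ATP (CellTiter-Glo), relative to DMSO, with zVAD at 20 μM as rescue control. Data are duplicate means, some estimated from preliminary results.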

[1] = means of duplicates, read-out: EC50
[2] = estimated based on preliminary results, read-out: EC50
[3] = estimated (*Est.) / preliminary results, read-out: EC50

| SMILES | EC50 [1] | other results |
| --- | --- | --- |
| COc1ccc(Cn2cc(-c3cc(C(F)F)nc([S+](C)[O-])n3)ccc2=O)cc1C(F)(F)F (centres unmarked) [Compound 170, 5-(6-(difluoromethyl)-2-(methylsulfinyl)pyrimidin-4-yl)-1-(4-methoxy-3-(trifluoromethyl)benzyl)pyridin-2 (1H)-one] | 1 to 1000 nM | – |
| O=c1c(F)cc(-c2cc(CF)nc(S(=O)(=O)CCC(OCc3ccccc3F)c3ccccc3)n2)cn1Cc1ccc2c(c1)OCO2 (centres unmarked) [Compound 335, 1-(benzo[d][1,3]dioxol-5-ylmethyl)-3-fluoro-5-(2-((3-((2-fluorobenzyl)oxy)-3-phenylpropyl)sulfonyl)-6-(fluoromethyl)pyrimidin-4-yl)pyridin-2 (1H)-one] | 1 to 1000 nM | – |
| COc1ccc(Cn2cc(-c3cc(C(C)(F)F)nc(S(C)(=O)=O)n3)ccc2=O)cc1OC [Compound 164, 5-(6-(1,1-difluoroethyl)-2-(methylsulfonyl)pyrimidin-4-yl)-1-(3,4-dimethoxybenzyl)pyridin-2 (1H)-one] | 1 to 1000 nM | – |
| COc1ccc(Cn2cc(-c3cc(-n4ccnc4)nc([S+](C)[O-])n3)ccc2=O)cc1OC (centres unmarked) [Compound 221] | – | EC50 [2]: < 10000 nM |
| COc1ccc(Cn2cc(-c3cc(C)nc(S(=O)(=O)CC(F)(F)F)n3)ccc2=O)cc1OC [Compound 166, 1-(3,4-dimethoxybenzyl)-5-(6-methyl-2-((2,2,2-trifluoroethyl)sulfonyl)pyrimidin-4-yl)pyridin-2 (1H)-one] | 1000 to 10000 nM | – |
| CNS(=O)(=O)CCCS(=O)(=O)c1nc(-c2ccc(=O)n(Cc3ccc(OC)c(OC)c3)c2)cc(C(F)F)n1 [Compound 178, 3-((4-(difluoromethyl)-6-(1-(3,4-dimethoxybenzyl)-6-oxo-1,6-dihydropyridin-3-yl)pyrimidin-2-yl)sulfonyl)-N-methylpropane-1-sulfonamide] | 1 to 1000 nM | – |
| Cc1cc(-c2cc(F)c(=O)n(Cc3ccc4c(c3)OCO4)c2)nc(S(=O)(=O)CCC(OCC2CCOCC2)c2ccccc2)n1 (centres unmarked) [Compound 410] | – | EC50 [3]: 1 to 1000 nM |
| C#CCOc1ccc(Cn2cc(-c3cc(C(F)(F)F)nc(S(C)(=O)=O)n3)ccc2=O)cc1OC [Compound 130, 1-(3-methoxy-4-(prop-2-yn-1-yloxy)benzyl)-5-(2-(methylsulfonyl)-6-(trifluoromethyl)pyrimidin-4-yl)pyridin-2 (1H)-one] | – | EC50 (means of duplicates): 1 to 1000 nM |
| CCc1cc(Cn2cc(-c3cc(C(F)(F)F)nc([S+](C)[O-])n3)ccc2=O)ccc1OC (centres unmarked) [Compound 263] | – | EC50 [2]: < 10000 nM |
| Cc1cc(-c2cc(F)c(=O)n(Cc3ccc4c(c3)CC(=O)N4C)c2)nc(S(=O)(=O)CCC(OCc2ccccc2F)c2ccccc2)n1 (centres unmarked) [Compound 351] | – | EC50 [3]: 1 to 1000 nM |
| CS(=O)(=O)c1nc(-c2ccc(=O)n(Cc3ccc(-c4ccccc4)cc3)c2)cc(C(F)(F)F)n1 [Compound 131, 1-([1,1′-biphenyl]-4-ylmethyl)-5-(2-(methylsulfonyl)-6-(trifluoromethyl)pyrimidin-4-yl)pyridin-2 (1H)-one] | 1 to 1000 nM | – |
| COc1ccc(Cn2cc(-c3cc(F)nc(S(C)(=O)=O)n3)ccc2=O)cc1OC [Compound 201, 1-(3,4-dimethoxybenzyl)-5-(6-fluoro-2-(methylsulfonyl)pyrimidin-4-yl)pyridin-2 (1H)-one] | – | EC50 [2]: < 10000 nM |
| COc1ccc(Cn2cc(-c3cc(C(F)F)nc(S(=O)(=O)CCC(OCc4ccc(F)cc4F)c4ccccc4)n3)ccc2=O)cc1F (centres unmarked) [Compound 286, 5-(2-(3-(2,4-difluorobenzyloxy)-3-phenylpropylsulfonyl)-6-(difluoromethyl)pyrimidin-4-yl)-1-(3-fluoro-4-methoxybenzyl)pyridin-2 (1H)-one] | 1 to 1000 nM | – |
| Cc1cc(-c2cc(F)c(=O)n(Cc3ccc4nsnc4c3)c2)nc(S(=O)(=O)CCC(OCc2ccccc2F)c2ccccc2)n1 (centres unmarked) [Compound 319, 1-(benzo[c][1,2,5]thiadiazol-5-ylmethyl)-3-fluoro-5-(2-(3-(2-fluorobenzyloxy)-3-phenylpropylsulfonyl)-6-methylpyrimidin-4-yl)pyridin-2 (1H)-one] | 1 to 1000 nM | – |
| COc1ccc(Cn2cc(-c3cc(-c4ccc[nH]4)nc(S(C)(=O)=O)n3)ccc2=O)cc1OC [Compound 204] | – | EC50 [2]: < 10000 nM |
| C[S+]([O-])c1nc(N2CCOCC2)cc(C(F)(F)F)n1 (centres unmarked) [Compound 82, 4-(2-(methylsulfinyl)-6-(trifluoromethyl)pyrimidin-4-yl)morpholine] | < 100000 nM | – |
| COCCS(=O)(=O)c1nc(-c2ccc(=O)n(Cc3ccc(OC)c(OC)c3)c2)cc(C(F)(F)F)n1 [Compound 143] | 1 to 1000 nM | – |
| Cc1cc(-c2cc(F)c(=O)n(Cc3ccc4c(c3)OCO4)c2)nc(S(=O)(=O)CCCC(=O)N(C(C)(C)C)C(C)(C)C)n1 [Compound 382] | – | EC50 [3]: 1 to 1000 nM |
| CS(=O)(=O)c1nc(-c2ccc(=O)n(Cc3ccc4cnccc4c3)c2)cc(C(F)(F)F)n1 [Compound 248] | – | EC50 [2]: < 10000 nM |
| CS(=O)(=O)c1nc(-c2cccs2)cc(N2CCOCC2)n1 [Compound 40, 4-(2-(methylsulfonyl)-6-(thiophen-2-yl)pyrimidin-4-yl)morpholine] | < 100000 nM | – |
| Cc1cc(-c2cc(F)c(=O)n(Cc3ccc4c(c3)OCO4)c2)nc(S(=O)(=O)CCC(OCC2CCN(C)CC2)c2ccccc2)n1 (centres unmarked) [Compound 411] | – | EC50 [3]: 1 to 1000 nM |

| SMILES | EC50 [1] | other results |
| --- | --- | --- |
| Cc1cc(-c2cnc(=O)n(Cc3ccc4c(c3)OCO4)c2)nc(S(=O)(=O)CCC(OCc2ccccc2F)c2ccccc2)n1 (centres unmarked) [Compound 307, 1′-(benzo[d][1,3]dioxol-5-ylmethyl)-2-((3-((2-fluorobenzyl)oxy)-3-phenylpropyl)sulfonyl)-6-methyl-[4,5′-bipyrimidin]-2′(1′H)-one] | 1 to 1000 nM | – |
| C#CCn1cc(-c2cc(C(F)(F)F)nc([S+](C)[O-])n2)ccc1=O (centres unmarked) [Compound 101, 5-(2-(methylsulfinyl)-6-(trifluoromethyl)pyrimidin-4-yl)-1-(prop-2-yn-1-yl) pyridin-2 (1H)-one] | 1000 to 10000 nM | – |
| Cc1cc(-c2cc(F)c(=O)n(Cc3ccc4c(c3)OCO4)c2)nc(S(=O)(=O)CCC(OCc2ccccc2F)c2ccc3ncccc3c2)n1 (centres unmarked) [Compound 391] | – | EC50 [3]: 1 to 1000 nM |
| COc1ccc(Cn2cc(-c3cc(C(F)(F)F)nc(S(=O)(=O)CN4CCCC4)n3)ccc2=O)cc1OC [Compound 194] | – | EC50 [2]: < 10000 nM |
| CS(=O)(=O)c1nc(-c2ccn(Cc3cccc(C#N)c3)c2)cc(C(F)(F)F)n1 [Compound 97, 3-((3-(2-(methylsulfonyl)-6-(trifluoromethyl)pyrimidin-4-yl)-1H-pyrrol-1-yl)methyl)benzonitrile] | < 100000 nM | – |
| COc1ccc(Cn2cc(-c3cc(C(F)F)nc(S(=O)(=O)CCCOCc4ccccc4)n3)ccc2=O)cc1OC [Compound 272, 5-(2-((3-(benzyloxy)propyl)sulfonyl)-6-(difluoromethyl)pyrimidin-4-yl)-1-(3,4-dimethoxybenzyl)pyridin-2 (1H)-one] | – | EC50 [3]: 1 to 1000 nM |
| COC(=O)c1ccc(-c2cc(C(F)(F)F)nc([S+](C)[O-])n2)cc1 (centres unmarked) [Compound 62, methyl 4-(2-(methylsulfinyl)-6-(trifluoromethyl)pyrimidin-4-yl)benzoate] | < 100000 nM | – |
| Cc1cc(-c2cc(F)c(=O)n(CC3CCOCC3)c2)nc([S+]([O-])CCC(OCc2ccc(F)cc2F)c2ccccc2)n1 (centres unmarked) [Compound 313, 5-(2-(3-(2,4-difluorobenzyloxy)-3-phenylpropylsulfinyl)-6-methylpyrimidin-4-yl)-3-fluoro-1-((tetrahydro-2H-pyran-4-yl)methyl)pyridin-2 (1H)-one] | 1000 to 10000 nM | – |
| C[S+]([O-])c1nc(-c2ccc(=O)n(Cc3ccc4c(c3)OCCN4)c2)cc(C(F)(F)F)n1 (centres unmarked) [Compound 241] | – | EC50 [2]: < 10000 nM |
| CNc1cc(Cn2cc(-c3cc(C(F)(F)F)nc([S+](C)[O-])n3)ccc2=O)ccc1OC (centres unmarked) [Compound 239] | – | EC50 [2]: < 10000 nM |
| COc1ccc(Cn2cc(-c3cc(C(F)F)nc(S(C)(=O)=O)n3)ccc2=O)cc1C(F)(F)F [Compound 169, 5-(6-(difluoromethyl)-2-(methylsulfonyl)pyrimidin-4-yl)-1-(4-methoxy-3-(trifluoromethyl)benzyl)pyridin-2 (1H)-one] | 1 to 1000 nM | – |
| COc1ccc(Cn2cc(-c3cc(C(F)(F)F)nc(S(=O)(=O)Cc4ccccn4)n3)ccc2=O)cc1OC [Compound 189] | – | EC50 [2]: < 10000 nM |
| COc1ccc(-c2cc(C(F)(F)F)nc(S(C)(=O)=O)n2)cc1 [Compound 53, 4-(4-methoxyphenyl)-2-(methylsulfonyl)-6-(trifluoromethyl)pyrimidine] | < 100000 nM | – |
| CS(=O)(=O)c1nc(-c2ccc(=O)n(Cc3ccc4c(c3)OCCN4)c2)cc(C(F)(F)F)n1 [Compound 240] | – | EC50 [2]: < 10000 nM |
| COc1ccc(Cn2cc(-c3cc(C(F)F)nc(S(C)(=O)=O)n3)ccc2=O)cc1OC [Compound 160, 5-(6-(difluoromethyl)-2-(methylsulfonyl)pyrimidin-4-yl)-1-(3,4-dimethoxybenzyl)pyridin-2 (1H)-one] | 1 to 1000 nM | – |
| CS(=O)(=O)c1nc(-c2ccc[nH]c2=O)cc(C(F)(F)F)n1 [Compound 80, 3-(2-(methylsulfonyl)-6-(trifluoromethyl)pyrimidin-4-yl)pyridin-2 (1H)-one] | < 100000 nM | – |
| C[S+]([O-])c1nc(-c2ccc(=O)n(Cc3ccc4ncccc4c3)c2)cc(C(F)(F)F)n1 (centres unmarked) [Compound 247] | – | EC50 [2]: < 10000 nM |
| COc1ccc(Cn2cc(-c3cc(C(F)(F)F)nc(S(=O)(=O)CCC(=O)N(C)C)n3)ccc2=O)cc1OC [Compound 149, 3-((4-(1-(3,4-dimethoxybenzyl)-6-oxo-1,6-dihydropyridin-3-yl)-6-(trifluoromethyl)pyrimidin-2-yl)sulfonyl)-N,N-dimethylpropanamide] | 1 to 1000 nM | – |
| Cc1cc(-c2cc(F)c(=O)n(CC3CCCCC3)c2)nc([S+]([O-])CCC(OCc2ccc(F)cc2F)c2ccccc2)n1 (centres unmarked) [Compound 308, 1-(cyclohexylmethyl)-5-(2-(3-(2,4-difluorobenzyloxy)-3-phenylpropylsulfinyl)-6-methylpyrimidin-4-yl)-3-fluoropyridin-2 (1H)-one] | < 100000 nM | – |
| Cc1cc(-c2cc(F)c(=O)n(Cc3ccc4c(c3)N(C)CCN4C)c2)nc(S(=O)(=O)CCC(OCc2ccccc2F)c2ccccc2)n1 (centres unmarked) [Compound 347] | – | EC50 [3]: 1 to 1000 nM |
